We go through seven molecules from ChEMBL document CHEMBL3868618, “Synthesis and biological evaluation of chalcone derivatives containing aminoguanidine or acylhydrazone moieties” (Bioorg Med Chem Lett, 2016).

SMILES strings stand for the structures. ≈ marks a conversion by molar mass, not a printed value.

In assay [1] the test system is Pseudomonas aeruginosa. Briefly: Antibacterial activity against Pseudomonas aeruginosa 2742 measured after 24 hrs by two-fold serial dilution method. In kind it is functional. To be noted: Pseudomonas aeruginosa, 2742, 24 h.
Assay [2] deals with Staphylococcus aureus. Description: Antibacterial activity against Staphylococcus aureus 209 measured after 24 hrs by two-fold serial dilution method. It is filed as functional. To be noted: Staphylococcus aureus, 209, 24 h.
The subject of assay [3] is Salmonella typhimurium. Briefly: Antibacterial activity against Salmonella typhimurium 1926 measured after 24 hrs by two-fold serial dilution method. In kind it is functional, Salmonella enterica subsp. enterica serovar Typhimurium. Particulars: Salmonella enterica, 1926, 24 h.
For assay [4], the system named is Streptococcus mutans. Description: Antibacterial activity against Streptococcus mutans 3065 measured after 24 hrs by two-fold serial dilution method. In kind it is functional. To be noted: Streptococcus mutans, 3065, 24 h.
For assay [5], the system named is Staphylococcus aureus. Description: Antibacterial activity against quinolone-resistant Staphylococcus aureus 3519 measured after 24 hrs by two-fold serial dilution method. It is filed as functional. To be noted: Staphylococcus aureus, 3519, 24 h.
Assay [6] relates to Mus musculus. Description: Antiinflammatory activity in mouse assessed as inhibition of xylene-induced ear edema at 100 mg/kg, ip administered 30 mins before xylene challenge measured after 30 mins relative to DMSO-control. It is filed as functional.
Assay [7] deals with Escherichia coli. Briefly: Antibacterial activity against Escherichia coli 1356 measured after 24 hrs by two-fold serial dilution method. It is filed as functional. Particulars: Escherichia coli, 1356, 24 h.
Assay [8] deals with Staphylococcus aureus. Briefly: Antibacterial activity against Staphylococcus aureus 4220 measured after 24 hrs by two-fold serial dilution method. In kind it is functional. Particulars: Staphylococcus aureus, 4220, 24 h.
The subject of assay [9] is Staphylococcus aureus. Description: Antibacterial activity against methicillin-resistant Staphylococcus aureus 3506 measured after 24 hrs by two-fold serial dilution method. To be noted: Staphylococcus aureus, 3506, 24 h. It is filed as functional.
Assay [10] has as its system Staphylococcus aureus. Description: Antibacterial activity against methicillin-resistant Staphylococcus aureus 3167 measured after 24 hrs by two-fold serial dilution method. In kind it is functional. To be noted: Staphylococcus aureus, 3167, 24 h.
Assay [11] concerns Staphylococcus aureus. Briefly: Antibacterial activity against Staphylococcus aureus 503 measured after 24 hrs by two-fold serial dilution method. It is filed as functional. To be noted: Staphylococcus aureus, 503, 24 h.
In assay [12] the test system is Candida albicans. Briefly: Antifungal activity against Candida albicans 7535 measured after 24 hrs by two-fold serial dilution method. In kind it is functional. To be noted: Candida albicans, 7535, 24 h.
The subject of assay [13] is Staphylococcus aureus. Briefly: Antibacterial activity against quinolone-resistant Staphylococcus aureus 3505 measured after 24 hrs by two-fold serial dilution method. In kind it is functional. To be noted: Staphylococcus aureus, 3505, 24 h.
Assay [14] relates to Escherichia coli. Briefly: Antibacterial activity against Escherichia coli 1924 measured after 24 hrs by two-fold serial dilution method. In kind it is functional. Particulars: Escherichia coli, 1924, 24 h.

In general, MIC refers to the least concentration at which growth counts as inhibited. A higher MIC goes with weaker potency. What is called inhibition in vivo is the percentage by which the read-out fell short of the control. On to `O=C(/C=C/c1ccc(/C=N/NC(=O)c2ccncc2)cc1)c1ccc(F)cc1`, for which the MIC in assay [1] was greater than 64 µg/mL; in assay [2], 32 µg/mL (≈ 85.7 µM); in [3], greater than 64 µg/mL; in assay [4], 64 µg/mL (≈ 171 µM); in assay [5], 32 µg/mL (≈ 85.7 µM); in assay [7] it was 64 µg/mL (≈ 171 µM). Moreover, the MIC in assay [8] is 32 µg/mL (≈ 85.7 µM); in assay [9], 32 µg/mL (≈ 85.7 µM); in assay [10], 32 µg/mL (≈ 85.7 µM); in assay [11] it was 64 µg/mL (≈ 171 µM); in assay [12], greater than 64 µg/mL; in assay [13] it was 32 µg/mL (≈ 85.7 µM). The same molecule yielded an MIC in assay [14] of 64 µg/mL (≈ 171 µM). In assay [6], the inhibition in vivo at 100 mg/kg came to 51.1%.

For the molecule `O=C(N/N=C/c1ccc(/C=C/C(=O)c2ccccc2Cl)cc1)c1cccc(Cl)c1`, the MIC in assay [1] was greater than 64 µg/mL; in assay [2] it was 32 µg/mL (≈ 75.6 µM); in assay [3], greater than 64 µg/mL; in assay [4], greater than 64 µg/mL; in assay [5], 32 µg/mL (≈ 75.6 µM); in assay [7] it was greater than 64 µg/mL. Also, the MIC in [8] is 32 µg/mL (≈ 75.6 µM); in [9] it was 32 µg/mL (≈ 75.6 µM); in assay [10] it was 32 µg/mL (≈ 75.6 µM); in assay [11], 32 µg/mL (≈ 75.6 µM); in assay [12], greater than 64 µg/mL; in assay [13], 32 µg/mL (≈ 75.6 µM). This molecule displayed a minimum inhibitory concentration (MIC) in assay [14] greater than 64 µg/mL. In addition, the inhibition in vivo at 100 mg/kg in [6] amounted to 43%.

As for `Cc1ccc(C(=O)/C=C/c2ccc(/C=N/NC(=O)c3ccccc3)cc2)c(C)c1`, the MIC in assay [1], in [2], in [3], in [4], in [5] and in assay [7] was greater than 64 µg/mL throughout. Also, the MIC in [8], in assay [9], in assay [10], in assay [11], in assay [12] and in assay [13] was greater than 64 µg/mL each time. This molecule returned an MIC in assay [14] greater than 64 µg/mL. Further, the inhibition in vivo at 100 mg/kg in assay [6] was 0.18%.

Regarding `O=C(/C=C/c1ccc(/C=N/NC(=O)c2ccncc2)cc1)c1ccc(Br)cc1`, the MIC is greater than 64 µg/mL in assay [1]; greater than 64 µg/mL in [2]; greater than 64 µg/mL in assay [3]; greater than 64 µg/mL in assay [4]; 64 µg/mL (≈ 147 µM) in [5]; greater than 64 µg/mL in [7]. In addition, the MIC in [8] is greater than 64 µg/mL; in assay [9], 64 µg/mL (≈ 147 µM); in [10], greater than 64 µg/mL; in [11], greater than 64 µg/mL; in assay [12], greater than 64 µg/mL; in assay [13], greater than 64 µg/mL. Moreover, the MIC in assay [14] was greater than 64 µg/mL. The inhibition in vivo at 100 mg/kg in assay [6] stood at 55.7%.

`O=C(N/N=C/c1ccc(/C=C/C(=O)c2ccccc2Br)cc1)c1ccncc1`: the MIC in assay [1] is greater than 64 µg/mL; in assay [2], 64 µg/mL (≈ 147 µM); in assay [3], greater than 64 µg/mL; in assay [4], 32 µg/mL (≈ 73.7 µM); in assay [5], greater than 64 µg/mL; in assay [7], greater than 64 µg/mL. Also, the MIC in assay [8] was 64 µg/mL (≈ 147 µM); in [9], greater than 64 µg/mL; in assay [10], greater than 64 µg/mL; in [11], greater than 64 µg/mL; in [12] it was 64 µg/mL (≈ 147 µM); in assay [13], greater than 64 µg/mL. Besides, in assay [14], the MIC was greater than 64 µg/mL. The inhibition in vivo at 100 mg/kg in assay [6] came to 48.7%.

As to `O=C(N/N=C/c1ccc(/C=C/C(=O)c2ccc(Cl)cc2Cl)cc1)c1ccncc1`, the MIC was greater than 64 µg/mL in assay [1]; 16 µg/mL (≈ 37.7 µM) in assay [2]; greater than 64 µg/mL in [3]; 32 µg/mL (≈ 75.4 µM) in assay [4]; 16 µg/mL (≈ 37.7 µM) in [5]; 32 µg/mL (≈ 75.4 µM) in assay [7]. In addition, the MIC in assay [8] is 8 µg/mL (≈ 18.9 µM); in [9], 16 µg/mL (≈ 37.7 µM); in assay [10], 16 µg/mL (≈ 37.7 µM); in assay [11] it was 16 µg/mL (≈ 37.7 µM); in [12], 4 µg/mL (≈ 9.43 µM); in [13], 16 µg/mL (≈ 37.7 µM). The molecule also registered an MIC in assay [14] of 32 µg/mL (≈ 75.4 µM). In addition, in assay [6], the inhibition in vivo at 100 mg/kg was 83.8%.

Regarding `O=C(N/N=C/c1ccc(/C=C/C(=O)c2ccccc2Cl)cc1)c1ccccc1`, the MIC was greater than 64 µg/mL in assay [1]; 64 µg/mL (≈ 165 µM) in assay [2]; greater than 64 µg/mL in assay [3]; greater than 64 µg/mL in [4]; 64 µg/mL (≈ 165 µM) in assay [5]; greater than 64 µg/mL in [7]. Moreover, the MIC is greater than 64 µg/mL in assay [8]; 64 µg/mL (≈ 165 µM) in assay [9]; 64 µg/mL (≈ 165 µM) in assay [10]; 64 µg/mL (≈ 165 µM) in assay [11]; greater than 64 µg/mL in [12]; 64 µg/mL (≈ 165 µM) in [13]. Also, in assay [14], the MIC was greater than 64 µg/mL.
